This experiment addresses fully phosphorylated, active Mouse ERK2 protein (Mus musculus, UniProt P63085). In words: Active ERK2 assay (AERK2), IMAP format. The experiment is classed as biochemical. The settings on record: activated ERK2, IMAP fluorescence polarization, 30 μM ATP. As to the method: 14 μl of kinase buffer (10 mM Tris.HCl pH 7.2, 10 mM MgCl2, 0.01% Tween-20, 1 mM DTT) containing 0.4 ng unphosphorylated Mouse ERK2 protein can be added to each well of a black 384-well assay plate. […] DMSO concentration during initial incubation is 6.7%. ERK2 activity can be determined to be insensitive to DMSO concentrations up to 20%. ERK2 can then be activated and it's kinase activity can be measured by the addition of 10 μl kinase buffer with the following components (final concentration per reaction): 2 ng active (phosphorylated) human MEK1 protein and 4 μM (total) ERK2 IMAP substrate peptides (3.9 μM unlabeled IPTTPITTTYFFFK-CONH2 and 100 nM IPTTPITTTYFFFK(5-carboxyfluorescein)-CONH2) and 30 μM ATP. DMSO concentration during ERK activation can be 4%. After one hour, reactions can be terminated by addition of 60 μl IMAP detections beads in binding buffer (Molecular Devices). Binding can be allowed to equilibrate for 30 minutes before reading the plate on an LJL Analyst Fluorescence Polarization plate reader. […] Active compounds can be reconfirmed in an independent assay.
Activated ERK2 activity was also determined in the IMAP assay format using the procedure outlined above. 1 μl of 25× compound was added to 14 μl of kinase buffer containing 0.25 ng fully phosphorylated, active Mouse ERK2 protein. Following a 30 minute incubation, the reactions were initiated by addition of 10 μl of kinase buffer containing 1 μM ERK2 IMAP substrate peptide (0.9 μM unlabeled IPTTPITTTYFFFK-CONH2 and 100 nM IPTTPITTTYFFFK(5-carboxyfluorescein)-CONH2) and 30 μM ATP. Reactions proceeded for 30 minutes before termination by addition of 60 μl IMAP detection beads in binding buffer. Plates were read as above after 30 minute binding equilibration. Active compounds were reconfirmed in an independent assay.

These results are taken from patent US8999966B2, “Compounds that are ERK inhibitors” (Merck Sharp & Dohme Corp., priority 2010, dated 2015).

By IC50 is commonly meant the concentration that gives 50% inhibition. Low values mean higher potency, high ones lower potency.

Sequence of fully phosphorylated, active Mouse ERK2 protein (P63085 whole entry): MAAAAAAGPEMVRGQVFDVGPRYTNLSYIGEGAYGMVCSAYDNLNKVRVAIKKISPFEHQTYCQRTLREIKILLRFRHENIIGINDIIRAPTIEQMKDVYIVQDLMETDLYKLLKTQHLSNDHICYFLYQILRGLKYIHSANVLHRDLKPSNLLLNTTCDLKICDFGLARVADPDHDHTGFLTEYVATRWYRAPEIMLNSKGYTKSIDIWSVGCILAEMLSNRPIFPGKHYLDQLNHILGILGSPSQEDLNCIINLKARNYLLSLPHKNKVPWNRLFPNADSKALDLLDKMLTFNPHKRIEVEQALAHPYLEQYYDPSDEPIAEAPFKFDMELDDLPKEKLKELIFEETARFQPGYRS

`c1ccc(CN2CCCC(c3nnc(-c4ccc5[nH]nc(-c6ccc7c(c6)CCO7)c5c4)o3)C2)cc1` (stereo not drawn) [Example 307, 3-(2,3-DIHYDRO-5- BENZOFURANYL)-5-[5-[1- (PHENYLMETHYL)-3- (PIPERIDINYL]-1,3,4- OXADIAZOL-2-YL]-1H- INDAZOLE] had an IC50 greater than 1000 nM. The compound `Clc1cc(-c2n[nH]c3ccc(-c4nnc([C@@H]5CCCN(CC6CCCCC6)C5)o4)cc23)ccn1` [Example 362, 3-(2-CHLORO-4-PYRIDINYL)- 5-[5-[1- (CYCLOHEXYLMETHYL)- 3(R)-PIPERIDINYL]-1,3,4- OXADIAZOL-2-YL]-1H- INDAZOLE] gave a concentration for half-maximal inhibition (IC50) of no less than 504 nM. Compound `COc1cccc(F)c1CN1CCC[C@@H](c2nnc(-c3ccc4[nH]nc(-c5ccc(O)c(NC(C)=O)c5)c4c3)o2)C1` [Example 314, N-[5-[5-[5-[1-[(2-FLUORO-6- METHOXYPHENYL)METHYL]- 3(R)-PIPERIDINYL]-1,3,4- OXADIAZOL-2-YL]-1H- INDAZOL-3-YL]-2- HYDROXYPHENYL] ACETAMIDE] showed an IC50 of 0.3 to 10.4 nM. For `CC1(C)Cc2cc(-c3n[nH]c4ccc(-c5n[nH]c([C@@H]6CCCN(Cc7c(F)cccc7F)C6)n5)cc34)ccc2O1` [Example 300, 5-[5-[1-[(2,6- DIFLUOROPHENYL)METHYL]- 3(R)-PIPERIDINYL]-1H- 1,2,4-TRIAZOL-3-YL]-3-(2,3- DIHYDRO-2,2-DIMETHYL-5- BENZOFURANYL)-1H- INDAZOLE] the value was no less than 504 nM; for `Cc1noc(C)c1-c1n[nH]c2ccc(-c3n[nH]c([C@@H]4CCCN(Cc5c(F)cccc5F)C4)n3)cc12` [Example 303, 5-[5-[1-[(2,6- DIFLUOROPHENYL)METHYL]- 3(R)-PIPERIDINYL]-1H- 1,2,4-TRIAZOL-3-YL]-3-(3,5- DIMETHYL-4-ISOXAZOLYL)- 1H-INDAZOLE], no less than 504 nM. `c1csc(CN2CCC[C@@H](c3nc(-c4ccc5[nH]nc(-c6ccc7c(c6)CCO7)c5c4)n[nH]3)C2)c1` [Example 298, 3-(2,3-DIHYDRO-5- BENZOFURANYL)-5-[5-[1-(2- THIENYLMETHYL)-3(R)- PIPERIDINYL]-1H-1,2,4- TRIAZOL-3-YL]-1H- INDAZOLE] displayed an IC50 of no less than 504 nM.
